Where “and” joins values, the source holds several entries; their conditions need not be identical. Identical values can stand only once. Toxic doses and inconclusive results are not listed. Cut-off read from the data, not from the text of the source: active = T/C of 150% or more; inactive = T/C below 125%.
System: L1210 leukemia ip in BDF1 mice, survival T/C
Experiment: NCI In Vivo Anticancer Drug Screen. Data for tumor model L1210 Leukemia (intraperitoneal) in B6D2F1 (BDF1) mice
Details: endpoint: mean survival time, higher = longer survival
Method in brief: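 Transplantable tumor model; survival measured in treated vs vehicle control mice. Value = treated/control.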

[1] = dose: 12.5 mg/kg/injection, schedule: Q01DX009 (ip), vehicle: saline with Tween-80
[2] = dose: 100.0 mg/kg/injection, schedule: Q04DX003 (ip), vehicle: saline with Tween-80
[3] = dose: 200.0 mg/kg/injection, schedule: Q01DX009 (ip), vehicle: saline with Tween-80
[4] = dose: 200.0 mg/kg/injection, schedule: Q04DX003 (ip), vehicle: saline with Tween-80
[5] = dose: 400.0 mg/kg/injection, schedule: Q01DX009 (ip), vehicle: saline with Tween-80
[6] = dose: 400.0 mg/kg/injection, schedule: Q04DX003 (ip), vehicle: saline with Tween-80
[7] = dose: 100.0 mg/kg/injection, schedule: Q01DX009 (ip), vehicle: Klucel (hydroxypropylcellulose) (HPC)
[8] = dose: 100.0 mg/kg/injection, schedule: Q04DX003 (ip), vehicle: Klucel (hydroxypropylcellulose) (HPC)
[9] = dose: 200.0 mg/kg/injection, schedule: Q04DX003 (ip), vehicle: Klucel (hydroxypropylcellulose) (HPC)
[10] = dose: 75.0 mg/kg/injection, schedule: Q01DX001 (ip), vehicle: carboxymethylcellulose (CMC)
[11] = dose: 100.0 mg/kg/injection, schedule: Q01DX001 (ip), vehicle: saline
[12] = dose: 200.0 mg/kg/injection, schedule: Q01DX001 (ip), vehicle: saline
[13] = dose: 400.0 mg/kg/injection, schedule: Q01DX001 (ip), vehicle: saline
[14] = dose: 100.0 mg/kg/injection, schedule: Q01DX009 (ip), vehicle: saline with Tween-80
[15] = dose: 200.0 mg/kg/injection, schedule: Q01DX009 (ip), vehicle: Klucel (hydroxypropylcellulose) (HPC)
[16] = dose: 400.0 mg/kg/injection, schedule: Q01DX009 (ip), vehicle: Klucel (hydroxypropylcellulose) (HPC)
[17] = dose: 50.0 mg/kg/injection, schedule: Q01DX001 (ip), vehicle: Klucel (hydroxypropylcellulose) (HPC)
[18] = dose: 100.0 mg/kg/injection, schedule: Q01DX001 (ip), vehicle: Klucel (hydroxypropylcellulose) (HPC)

Measured: T/C

O=C(/C=C/c1ccccc1)NC(=S)Nc1ccccc1F
inactive: [1] 106 % of control and 88 % of control | dose: 25.0 mg/kg/injection, schedule: Q01DX009 (ip), vehicle: saline with Tween-80 95 % of control and 107 % of control | dose: 50.0 mg/kg/injection, schedule: Q01DX009 (ip), vehicle: saline with Tween-80 97 % of control | dose: 100.0 mg/kg/injection, schedule: Q01DX001 (ip), vehicle: saline with Tween-80 92 % of control | dose: 100.0 mg/kg/injection, schedule: Q04DX002 (ip), vehicle: alcohol 95 % of control and 90 % of control | [2] 94 % of control | dose: 200.0 mg/kg/injection, schedule: Q01DX001 (ip), vehicle: saline with Tween-80 90 % of control | [3] 89 % of control | dose: 200.0 mg/kg/injection, schedule: Q04DX002 (ip), vehicle: alcohol 101 % of control | [4] 87 % of control | dose: 400.0 mg/kg/injection, schedule: Q01DX001 (ip), vehicle: saline with Tween-80 87 % of control | [5] 86 % of control | dose: 400.0 mg/kg/injection, schedule: Q04DX002 (ip), vehicle: alcohol 102 % of control | [6] 86 % of control

Cc1cc(C)c(NC(=O)c2c(Cl)c(Cl)c(Cl)c(Cl)c2C(=O)O)c(C)c1
inactive: dose: 25.0 mg/kg/injection, schedule: Q01DX009 (ip), vehicle: Klucel (hydroxypropylcellulose) (HPC) 102 % of control | dose: 50.0 mg/kg/injection, schedule: Q01DX009 (ip), vehicle: Klucel (hydroxypropylcellulose) (HPC) 105 % of control | [7] 94 % of control and 116 % of control

CN(C)CCCN1c2ccccc2CCc2ccc(Cl)cc21
inactive: dose: 3.12 mg/kg/injection, schedule: Q01DX009 (ip), vehicle: saline 97 % of control | dose: 6.25 mg/kg/injection, schedule: Q01DX009 (ip), vehicle: saline 108 % of control | dose: 12.5 mg/kg/injection, schedule: Q01DX009 (ip), vehicle: saline 94 % of control | dose: 25.0 mg/kg/injection, schedule: Q01DX009 (ip), vehicle: saline 94 % of control | dose: 25.0 mg/kg/injection, schedule: Q04DX003 (ip), vehicle: saline 96 % of control | dose: 50.0 mg/kg/injection, schedule: Q01DX009 (ip), vehicle: saline 101 % of control | dose: 50.0 mg/kg/injection, schedule: Q04DX003 (ip), vehicle: saline 96 % of control

O=C1OC(=O)C2C3C=CC(CC3)C12 (centres undefined)
inactive: [8] 96 % of control | dose: 100.0 mg/kg/injection, schedule: Q04DX003 (ip), vehicle: saline 98 % of control | [9] 100 % of control | dose: 200.0 mg/kg/injection, schedule: Q04DX003 (ip), vehicle: saline 98 % of control

CN(C)C(=O)NC1CCc2ccc([N+](=O)[O-])cc21 (centres undefined)
inactive: dose: 100.0 mg/kg/injection, schedule: Q04DX002 (ip), vehicle: saline with Tween-80 97 % of control | dose: 200.0 mg/kg/injection, schedule: Q04DX002 (ip), vehicle: saline with Tween-80 108 % of control | dose: 400.0 mg/kg/injection, schedule: Q04DX002 (ip), vehicle: saline with Tween-80 119 % of control

S=C(Nc1ccc(Cl)cc1)Nc1ccc(-c2ccc(NC(=S)Nc3ccc(Cl)cc3)cc2)cc1
inactive: dose: 100.0 mg/kg/injection, schedule: Q04DX002 (ip), vehicle: Klucel (hydroxypropylcellulose) (HPC) 107 % of control | dose: 200.0 mg/kg/injection, schedule: Q04DX002 (ip), vehicle: Klucel (hydroxypropylcellulose) (HPC) 100 % of control | dose: 400.0 mg/kg/injection, schedule: Q04DX002 (ip), vehicle: Klucel (hydroxypropylcellulose) (HPC) 89 % of control

O=P(CCC(F)(F)C(F)(F)C(F)(F)C(F)(F)C(F)(F)C(F)(F)C(F)(F)F)(N1CC1)N1CC1
inactive: [10] 108 % of control

C/C(=N/NC(N)=S)c1c(C)[nH]c2ccccc12
inactive: dose: 10.0 mg/kg/injection, schedule: Q01DX001 (ip), vehicle: acetone 96 % of control | dose: 20.0 mg/kg/injection, schedule: Q01DX001 (ip), vehicle: acetone 96 % of control | dose: 40.0 mg/kg/injection, schedule: Q01DX001 (ip), vehicle: acetone 95 % of control

Cc1cccc(C=O)c1
inactive: [11] 102 % of control | [12] 96 % of control | [13] 96 % of control

CC1(C)OC2COC(c3[nH]nc4c(=O)[nH][nH]c(=O)c34)C2O1 (centres undefined)
inactive: dose: 100.0 mg/kg/injection, schedule: Q01DX005 (ip), vehicle: saline 103 % of control | dose: 200.0 mg/kg/injection, schedule: Q01DX005 (ip), vehicle: saline 106 % of control

C/C=C1\CN(C)[C@H]2Cc3c([nH]c4ccccc34)[C@@H](c3cc4[nH]c5c(c4cc3OC)CCN3C[C@H]4C[C@H](CC)[C@H]3[C@@]5(C(=O)OC)C4)C[C@H]1C2C(=O)OC (some centres undefined)
inactive: dose: 30.0 mg/kg/injection, schedule: Q01DX Z (ip), vehicle: water 106 % of control | dose: 45.0 mg/kg/injection, schedule: Q01DX Z (ip), vehicle: water 100 % of control and 102 % of control | dose: 45.0 mg/kg/injection, schedule: Q02DX Z (ip), vehicle: water 101 % of control | dose: 60.0 mg/kg/injection, schedule: Q01DX Z (ip), vehicle: water 96 % of control and 101 % of control | dose: 60.0 mg/kg/injection, schedule: Q02DX Z (ip), vehicle: water 104 % of control | dose: 70.0 mg/kg/injection, schedule: Q02DX Z (ip), vehicle: water 102 % of control | dose: 75.0 mg/kg/injection, schedule: Q01DX Z (ip), vehicle: water 100 % of control | dose: 90.0 mg/kg/injection, schedule: Q01DX Z (ip), vehicle: water 100 % of control

O=C1OC(O)c2cccc3cccc1c23 (centres undefined)
inactive: [1] 93 % of control and 89 % of control

CC(=O)OCC(CCn1ccc(=O)[nH]c1=O)COC(C)=O
inactive: [14] 93 % of control | [2] 100 % of control | [3] 95 % of control | [4] 105 % of control | [5] 100 % of control | [6] 106 % of control

COC1=CC(=O)C=CC1=O
inactive: dose: 1.5 mg/kg/injection, schedule: Q01DX009 (ip), vehicle: saline 90 % of control | dose: 3.0 mg/kg/injection, schedule: Q01DX009 (ip), vehicle: saline 88 % of control | dose: 6.0 mg/kg/injection, schedule: Q01DX009 (ip), vehicle: saline 90 % of control

CCOC(=O)C(C)C(O)(c1ccccc1)c1ccccc1 (centres undefined)
inactive: [7] 90 % of control | [15] 97 % of control | [16] 106 % of control

CN(C)c1ccc(C=O)c(Oc2ccccc2)c1
inactive: [7] 96 % of control | [8] 97 % of control | [15] 110 % of control | [9] 97 % of control | [16] 106 % of control | dose: 400.0 mg/kg/injection, schedule: Q04DX003 (ip), vehicle: Klucel (hydroxypropylcellulose) (HPC) 94 % of control

CCC1([N+](=O)[O-])COP(=O)(OC(=O)c2ccccc2)OC1 (centres undefined)
inactive: [11] 100 % of control | [12] 108 % of control | [13] 97 % of control

NC(N)=Nc1ncnc2nncnc12
inactive: dose: 9.5 mg/kg/injection, schedule: Q01DX001 (ip), vehicle: other 102 % of control | dose: 19.0 mg/kg/injection, schedule: Q01DX001 (ip), vehicle: other 102 % of control | dose: 38.0 mg/kg/injection, schedule: Q01DX001 (ip), vehicle: other 102 % of control

Nc1cccc[n+]1CC1(c2ccccc2)OCCO1
inactive: [17] 110 % of control | [18] 106 % of control

CCC(CCc1ccccn1)C(=O)c1ccccc1 (centres undefined)
inactive: [10] 100 % of control | dose: 150.0 mg/kg/injection, schedule: Q01DX001 (ip), vehicle: carboxymethylcellulose (CMC) 96 % of control | dose: 300.0 mg/kg/injection, schedule: Q01DX001 (ip), vehicle: carboxymethylcellulose (CMC) 94 % of control

CC(=O)Nc1nc(=O)n(CC(=O)c2cccs2)cc1F
inactive: [14] 98 % of control | [2] 102 % of control | [3] 98 % of control | [4] 97 % of control | [6] 101 % of control

Cc1ccc(S(=O)(=O)NN=C(/C=C/c2ccccc2)/C=C/c2ccccc2)cc1
inactive: [17] 102 % of control | [18] 107 % of control | dose: 200.0 mg/kg/injection, schedule: Q01DX001 (ip), vehicle: Klucel (hydroxypropylcellulose) (HPC) 103 % of control
